Test results: patent US8835617B2, “Polynucleotides encoding a human TRIM-Cyp fusion polypeptide, compositions thereof, and methods of using same” (priority 2008, dated 2014)
Values joined by “and” are separate entries in the source; they are usually repeats but may differ in a detail not shown here. Equal entries are not always repeated. Where two headings read alike, the source gives them in different places. Marks after values point to notes of the source that are not given here.

Experiments:
cell-associated HIV-1 = test: hCD4+-Rag2-/-γc-/- mice infected with cell-associated HIV-1; format: in vivo
Description: Furthermore, the previous infections were initiated with cell-free HIV-1. […] Untransduced (GFP^−) CD4^+ cells from the same donor were cultured side by side and infected with CXCR4-tropic HIV-1 prior to infection of reconstituted mice. […] Peripheral blood was analyzed one, two, and three weeks after infection and mice were sacrificed three weeks after infection (FIG. 71A).

HIV-1 [1] = system: HIV-1
Excerpt: The timing of HIV-1 infection was changed to allow for a stabilization of engraftment prior to assessment of viral replication.
HIV-1 down-regulates cell-surface expression of CD4 (Chen et al., 1996). […] Finally, tissue sections of thymi were directly examined for human T cells (using anti-CD3 antibody) and HIV-1 p24 antigen.
The MLNs are closest to the site of HIV-1 infection (i.p), while the PLNs are further away.
(§1) Rag2^−/−γc^−/− mice on a BALB/c background (provided by M. Ito; Central Institute for Experimental Animals, Kawasaki, Japan) were bred and maintained under specific pathogen-free conditions in accordance with the guidelines of the animal facility at the Institute for Research in Biomedicine. CL2 MBP (clodronate) was from Roche Diagnostics (Mannheim, Germany). Preparation of liposomes containing CL2 MBP was done as described previously (Van Rooijen and Sanders, 1994). 6-10 week-old mice received 100 ul of clodronate liposomes intraperitoneally (i.p.) 24 hours prior to irradiation using a single sublethal dose of 4.0 Gray (Gy) from a Cesium 137 source (Biobeam 8000, STS GmbH, Braunschweig, Germany) at 3.75 Gy/min. […] CD4^+ T cell engraftment and maintenance in mice was measured by flow cytometry. To obtain peripheral blood cells and plasma, mice were bled from the retro-orbital venous sinus under anesthesia and red blood cells were lysed. When sacrificed, single cell suspensions from organs were prepared. For FACS analysis monoclonal antibodies against the following antigens were used: CD3 (UCHT1), CD4 (13B8.2), CD8 (B9.11), p24 (clone KC57) (all Immunotech/Beckman Coulter, Marseille, France), CD45 (HI30) (Caltag, Burlingame, Calif.). Intracellular staining for p24 was performed on single cell suspensions from mesenteric lymph nodes and thymus following staining with anti-CD3 antibody. Cells were washed, permeabilized, and fixed by treatment with BD Cytofix/Cytoperm (BD Pharmingen) and stained with anti-p24 antibody in BD Permwash solution (BD Pharmingen) following the manufacturer's instructions. Plasma HIV RNA concentrations were determined by Cobas Amplicor RT-PCR assay (Roche Diagnostics, Basel, Switzerland). Immunohistochemical stainings were performed as previously described (Baenziger et al., 2006). To assess nonspecific binding, tissue from untransplanted and uninfected transplanted mice was stained as controls.
Rag2^−/−γc^−/− mice on a BALB/c background (provided by M. Ito; Central Institute for Experimental Animals, Kawasaki, Japan) were bred and maintained under specific pathogen-free conditions in accordance with the guidelines of the animal facility at the Institute for Research in Biomedicine (Bellinzona) and the Swiss Federal Veterinary Office (Bern). […] CD4^+ T cell engraftment and maintenance in mice was measured by flow cytometry. […]

HIV-1 [2] = settings: U937, CEM-SS, SUP-T1, H9, HUH-7, CRFK, 293T
Excerpt: Since the objective was to engineer a fully human HIV-1 restriction factor, hCypA was the fused at 10 different positions along the length of hT5α (FIG. 44A).

HIV-1NL4-3 [3] = test: hCD4+-Rag2-/-γc-/- mice infected with HIV-1 four to five days after adoptive transfer; format: in vivo
Excerpt: Age-matched, 6-10 week-old Rag2^−/−γc^−/− mice were conditioned with clodronate and sublethal irradiation (van Rijn et al., 2003), and injected intraperitoneally with 2.5×10^6 transduced CD4^+ T cells (FIG. 68A,B).
as §1
Rag2^−/−γc^−/− mice on a BALB/c background (provided by M. Ito; Central Institute for Experimental Animals, Kawasaki, Japan) were bred and maintained under specific pathogen-free conditions in accordance with the guidelines of the animal facility at the Institute for Research in Biomedicine (Bellinzona) and the Swiss Federal Veterinary Office (Bern). Mouse experiments were reviewed and approved by the Veterinary Commission of the State of Ticino (Bellinzona, Switzerland). CL2 MBP (clodronate) was from Roche Diagnostics (Mannheim, Germany). Preparation of liposomes containing CL2 MBP was done as described previously (68). 6-10 week-old mice received 100 ul of clodronate liposomes intraperitoneally (i.p.) 24 hours prior to irradiation using a single sublethal dose of 4.0 Gray (Gy) from a Cesium 137 source (Biobeam 8000, STS GmbH, Braunschweig, Germany) at 3.75 Gy/min.

HIV-1NL4-3 [4] = test: HIV-1 challenge of CD4+ T cell cultures with <25% transduced cells; format: cell-based
Excerpt: These conditions would be more realistic of hT5Cyp therapy in patients. […] The survival advantage of CD4^+ T cell becomes apparent when analyzing the viability of the cells by forward versus side-scatter and gating on live lymphocytes; a method that had to be adopted since the cells were fixed in paraformaldehyde for flow cytometry analysis.

hT5Cyp: human TRIM5α fused at serine 322 to human cyclophilin A, SEQ ID NO:12
p24^+ of total human T cells in the infected thymus (cell-associated HIV-1; mouse, in vivo): 0.9% | protection of total CD3^+ T cell numbers in the thymus (cell-associated HIV-1; mouse, in vivo): 3.7 fold | CD3^+ T cells in thymus (cell-associated HIV-1; n=2): 2×10^7 | reduction in mean viral load vs hT5CypH126Q (cell-associated HIV-1; one week post-infection): 9.7 fold | CD4^+ T cell numbers relative to initial levels (cell-associated HIV-1; peripheral blood, three weeks post-infection): ≥ 40% | p24^+ of GFP^hi cells (cell-associated HIV-1; thymus): few | p24^+ of GFP^neg/lo cells (cell-associated HIV-1; thymus): 3.2% | reduction in total numbers of GFP^− p24^+ cells vs hT5CypH126Q (cell-associated HIV-1; thymus): > 3.3 fold | reduction in mean viral load vs hT5CypH126Q (cell-associated HIV-1; two weeks post-infection): 4.3 fold | p24^+ transduced human T cells (HIV-1 [1]; MLN or PLN, CCR5-tropic HIV-1): Few if any | mean viral load (HIV-1 [1]; n=8 per group): 1.6×10^5 (+/−1.1×10^5) copies viral RNA/ml plasma | down-regulation of cell surface CD4 (HIV-1 [1]; thymi and lymph nodes): prevented the down-regulation of cell surface CD4 | p24^+ transduced human T cells (HIV-1 [1]; thymi or mesenteric lymph nodes): Few if any | HIV-1 restriction in further cell lines (HIV-1 [2]): restricted HIV-1 | reduction in mean viral load vs hT5CypH126Q (HIV-1NL4-3 [3]; Example 4, n=5 and n=4): 22 fold | mean peripheral blood CD45^+ cells (HIV-1NL4-3 [3]; four weeks post-infection): 6.7% | percentage CD45^+ cells higher than hT5CypH126Q (HIV-1NL4-3 [3]; four weeks post-infection): 15 fold | Viral load (HIV-1NL4-3 [3]; individual mice, week 2, listed as wt): 103208 copies RNA/ml and 46007 copies RNA/ml and 43551 copies RNA/ml and 251320 copies RNA/ml and 66416 copies RNA/ml and 358800 copies RNA/ml and 566835 copies RNA/ml and 3811676 copies RNA/ml and 492800 copies RNA/ml and 27826 copies RNA/ml | Peripheral Blood (2 wks. postinfection) CD4 (HIV-1NL4-3 [3]; individual mice, listed as wt): 1 percentage of total nucleated cells and 0.44 percentage of total nucleated cells and 0.33 percentage of total nucleated cells and 1.56 percentage of total nucleated cells and 2.7 percentage of total nucleated cells and 7.7 percentage of total nucleated cells and 15.1 percentage of total nucleated cells and 28.3 percentage of total nucleated cells and 1.89 percentage of total nucleated cells and 1.1 percentage of total nucleated cells | Peripheral Blood (2 wks. postinfection) CD45 (HIV-1NL4-3 [3]; individual mice, listed as wt): 1.08 percentage of nucleated cells and 0.47 percentage of nucleated cells and 0.24 percentage of nucleated cells and 1.64 percentage of nucleated cells and 2.75 percentage of nucleated cells and 7.86 percentage of nucleated cells and 15.6 percentage of nucleated cells and 28.9 percentage of nucleated cells and 2.12 percentage of nucleated cells and 1.16 percentage of nucleated cells | Viral load (Corrected for CD4 count) (HIV-1NL4-3 [3]; individual mice, listed as wt): 101231 and 104916 and 192227 and 159325 and 24321 and 47206 and 37382 and 134446 and 260305 and 25410 | mean peripheral blood CD4^+ cells (HIV-1NL4-3 [3]; two weeks post-infection): 6% | percentage CD4^+ cells higher than hT5CypH126Q (HIV-1NL4-3 [3]; two weeks post-infection): 34 fold | RT activity in the culture supernatant (HIV-1NL4-3 [4]; mixed culture): significantly lower | day of peak viral replication (HIV-1NL4-3 [4]; mixed culture): 28 days | transduced cells in the culture after HIV-1 infection (HIV-1NL4-3 [4]; start <25% transduced): 75%
